{
  "source": "patent US20250000829A1",
  "about": "“PHENYLBUTYRATE COMPOSITIONS FOR TREATING DEVELOPMENTAL AND EPILEPTIC ENCEPHALOPATHY (“DEE”), AND STXBP1 DISORDERS” (priority 2023, published 2025)",
  "key": {"[1]": {"conditions": "mice; via the monocarboxylate transporter 1 mechanism; cited from earlier work"}, "[2]": {"test_system": "children with STXBP1-E and SLC6A1-NDD", "assay": "Open-label pilot study of glycerol phenylbutyrate: seizure response (seizure diary)", "assay_type": "in vivo, human", "conditions": "of 20 participants", "description": "(§1) After institutional review board approval, 20 participants were enrolled in a single treatment group, multiple-dose, open-label, pilot study to evaluate the safety, tolerability, pharmacokinetics (PK) and pharmacodynamics (PD) of glycerol phenylbutyrate in children with STXBP1-E and SLC6A1-NDD.\nParticipants in the study were patients aged 2 months to 17 years with STXBP1-E and seizures or with SLC6A1-NDD. People with SLC6A1 typically experience seizures later in life (typically middle of 1st decade) and so seizures were not an entry criterion for participants with SLC6A1. During enrollment preference was given to patients between 2 months and 3 years old (target of 5 patients) and patients between 4 and 10 years old (target 5 patients). This is because younger patients up to 3 years old may be more sensitive to possible pharmacodynamics and efficacy endpoints and, to a lesser extent, the same may be true for patients 4 to 10 years, as compared to older patients. The study enrolled 11 patients, including 4 children between 2 months and 2 years.\nA daily dose of 11.2 mL/m^2, equivalent to 12.4 g/m^2, was given, enterally (by mouth or, if necessary, by nasogastric or gastrostomy tube). The daily dose was divided into three equally divided doses, with each dose given with food.\nFIG. 3 is a schedule of assessments for measuring the effectiveness of glycerol phenylbutyrate to treat patients with STXBP1-E and SLC6A1-NDD. […]\nResponse to the medication was measured qualitatively and quantitatively using the following measures. Quantitative and qualitative measures included the change in the number of and percent change in the seizures per week, as recorded in the seizure diary, comparing weeks 1-4 with weeks 5-10; change and percent change in number of seizures per hour, as recorded by video EEG, comparing visit 5 (day before medication) to visit 6 (first day of medication), and comparing visit 5 to visit 14 (40 days after the first day of medication); and changes in […] in EEG data, comparing visit 5 to visit 6 and visit 5 to visit 14. Additional measures comparing visit 5 and visit 14 included quality of life assessment, as quantified by the change in PEDSQL epilepsy module score, and by the trajectory and overall change in the PELHS QOL-2 score; qualitative analysis of the participant's development and behavior; change in developmental assessment scores; ataxia as measured by changes in SARA scale score; and sleep as measured by CSHQ score. Medication dosing adherence was also assessed, quantified as the percentage of days in which the participant received the full prescribed dose, and considering obstacles to adherence qualitatively as reported by caregivers. […]"}, "[3]": {"conditions": "non-human primates; via the monocarboxylate transporter 1 mechanism; cited from earlier work"}, "[4]": {"test_system": "children with STXBP1-E and SLC6A1-NDD", "assay": "Open-label pilot study: quality of life assessed with the PEDSQL epilepsy module", "assay_type": "in vivo, human", "conditions": "assessed at 10 weeks of drug exposure", "procedure": "as §1\nQuality of life was assessed using the Pediatric Quality of Life Inventory (PEDSQL) epilepsy module, which is a validated scale about quality of life for children with epilepsy, and the Pediatric Epilepsy Learning Healthcare System Quality of Life survey (PELHS QOL 2), which is a set of two questions that ask how seizures and medication side effects alter usual routines. The PEDSQL is provided at eprovide.mapi-trust.org/instruments/pediatric-quality-of-life-inventory-epilepsy-module.\n(§2) Visit 5 was a pre-treatment baseline visit conducted at least 28 days after visit 1 and the day before treatment initiation. This visit was conducted in person while the patient was admitted to hospital. […]\n(§3) Visit 14 was a treatment evaluation visit and was conducted in person at least 40 days after the first day of medication administration. […] The participant was evaluated by a developmental pediatrician, neuropsychologist, or psychologist, in the same fashion as during visit 5.\n(§4) Response to the medication was measured qualitatively and quantitatively using the following measures. […]"}, "[5]": {"conditions": "cited from earlier work"}, "child with SLC6A1": {"test_system": "child with SLC6A1", "assay": "Open-label pilot study: EEG before and after treatment", "assay_type": "in vivo, human", "conditions": "10 second EEG, same child with SLC6A1, six weeks after treatment vs prior to treatment (brief absence seizure)", "procedure": "Investigators noted EEG changes, including standard clinical interpretation of the EEG and video (particularly for abnormal movements).\nVisit 5 was a pre-treatment baseline visit conducted at least 28 days after visit 1 and the day before treatment initiation. This visit was conducted in person while the patient was admitted to hospital. During this visit, the investigator reviewed the participant's seizure diary and medical history. The investigator administered several assessments, including the PEDSQL Epilepsy Module, the PELHS QOL 2, the SARA Scale, the CARS, the CSHQ, and the ORCA. The participant was given a physical exam and had urine and blood samples collected for a series of laboratory tests. Laboratory tests included routine laboratory tests and specialized laboratory tests. Routine laboratory tests that were conducted included a complete blood count (CBC), chemistry panels, liver function tests (LFTs), urinalysis, amylase test, lipase test, anti-seizure medication (ASM) levels test, and electrocardiogram (EKG). […]\nVisit 14 was a treatment evaluation visit and was conducted in person at least 40 days after the first day of medication administration. […] The participant was evaluated by a developmental pediatrician, neuropsychologist, or psychologist, in the same fashion as during visit 5. […]"}, "[6]": {"test_system": "children with STXBP1-E and SLC6A1-NDD", "assay": "Open-label pilot study: sleep assessed with the Child's Sleep Habits Questionnaire (CSHQ)", "assay_type": "in vivo, human", "conditions": "assessed at 10 weeks of drug exposure", "procedure": "as §1\nas §2, with “hospital. During this visit, the investigator reviewed the participant's seizure diary and medical history.” for “hospital.”\nas §3\nResponse to the medication was measured qualitatively and quantitatively using the following measures. […] Additional measures comparing visit 5 and visit 14 included quality of life assessment, as quantified by the change in PEDSQL epilepsy module score, and by the trajectory and overall change in the PELHS QOL-2 score; qualitative analysis of the participant's development and behavior; change in developmental assessment scores; ataxia as measured by changes in SARA scale score; and sleep as measured by CSHQ score. […]"}, "[7]": {"test_system": "children with STXBP1-E and SLC6A1-NDD", "assay": "Open-label pilot study: communication assessed with the ORCA", "assay_type": "in vivo, human", "conditions": "assessed at 10 weeks of drug exposure", "procedure": "as §1\nDevelopment was assessed using several pre-specified measures (Vineland, ORCA) as well as an assessment by a pediatric development expert (i.e. a physician, neuropsychologist, or psychologist with expertise in administering and interpreting developmental assessments). During the assessment, several additional validated measures may have been used. These may have included (but were not limited to) the Bayley Scales of Infant and Toddler Development, the Childhood Autism Rating Scale, the Child Behavior Checklist, the Behavior Rating Inventory of Executive Function, the Infant Toddler Social Emotional Assessment, the DAYC (Developmental Assessment of Young Children), or other similar validated scales. […]\nas §3, §4"}, "[8]": {"assay": "Blood/plasma and CSF levels of phenylbutyrate after glycerol phenylbutyrate dosing", "assay_type": "in vivo, human", "conditions": "doses of 12 g/m^2/day, extrapolated from 3 g/m^2/day", "procedure": "Dosing was sufficient to lead to therapeutic concentrations in the range of 0.25 mM to 1 mM in serum and CSF, based on the following observations. […] CSF levels are approximately ½ to ¼ of serum levels, based on data from non-human primates, thus CSF levels of 0.25 to 0.5 mM were assumed.\nThe secondary endpoints were measuring plasma concentration of phenylbutyrate and active metabolites. Plasma levels of phenylbutyrate peaked at 2 hours after an oral dose. Thus investigators aimed to obtain levels within 90-150 minutes after the oral dose."}, "[9]": {"conditions": "based on Lexicomp; cited from earlier work"}, "[10]": {"conditions": "daily dose 11.2 mL/m^2 enterally"}},
  "note": "Several values for one entry are separate records, joined by “and”; a condition that tells them apart may be missing. Equal values may be shown once. Read-outs that look alike come from different tables or passages of the source.",
  "data": [
    {"compound": "O=C(CCCc1ccccc1)OCC(COC(=O)CCCc1ccccc1)OC(=O)CCCc1ccccc1", "note": "[glycerol phenylbutyrate]", "values": [
      {"measurement": "Crossing of the blood-brain barrier", "setting": "[1]", "result": "crosses the blood-brain barrier"},
      {"measurement": "Responders (50% or more reduction in seizures clinically associated with the use of glycerol phenylbutyrate)", "setting": "[2]; daily dose 11.2 mL/m^2 (12.4 g/m^2) enterally in three divided doses", "result": 11, "unit": "participants"},
      {"measurement": "Indeterminant response (improvement, but less than 50% reduction in seizures or not clinically associated with use)", "setting": "[2]; [10]", "result": 3, "unit": "participants"},
      {"measurement": "Non-responders", "setting": "[2]; [10]", "result": 2, "unit": "participants"},
      {"measurement": "Participants that had no seizures", "setting": "[2]; [10]", "result": 4, "unit": "participants"},
      {"measurement": "Crossing of the blood-brain barrier", "setting": "[3]", "result": "crosses the blood-brain barrier"},
      {"measurement": "Participants with improved quality of life, as assessed with the PEDSQL", "setting": "[4]", "result": "4 of 11"},
      {"measurement": "Blood levels of phenylbutyric acid", "setting": "[5]; doses of 3 g/m^2/day of glycerol phenylbutyrate, adults", "result": "38 μg/mL and 0.23 mM"},
      {"measurement": "Seizure activity in EEG after treatment", "setting": "child with SLC6A1", "result": "did not show seizure activity"},
      {"measurement": "Participants with improved sleep, as assessed with the CSHQ", "setting": "[6]", "result": "5 of 12"},
      {"measurement": "Participants with improved communication, as assessed with the ORCA", "setting": "[7]", "result": "8 of 11"},
      {"measurement": "Concentration in serum", "setting": "[8]", "result": "~1000", "unit": "µM"},
      {"measurement": "Side effect frequency: abdominal pain", "setting": "[9]", "result": 7, "unit": "%"},
      {"measurement": "Side effect frequency: decreased appetite", "setting": "[9]", "result": 7, "unit": "%"},
      {"measurement": "Side effect frequency: diarrhea", "setting": "[9]", "result": 16, "unit": "%"},
      {"measurement": "Side effect frequency: dyspepsia", "setting": "[9]", "result": 5, "unit": "%"},
      {"measurement": "Side effect frequency: fatigue", "setting": "[9]", "result": 7, "unit": "%"},
      {"measurement": "Side effect frequency: flatulence", "setting": "[9]", "result": 14, "unit": "%"},
      {"measurement": "Side effect frequency: headache", "setting": "[9]", "result": 14, "unit": "%"},
      {"measurement": "Side effect frequency: nausea", "setting": "[9]", "result": 2, "unit": "%"},
      {"measurement": "Side effect frequency: vomiting", "setting": "[9]", "result": 7, "unit": "%"}
    ]},
    {"compound": "phenylbutyric acid [phenylbutyrate]", "values": [
      {"measurement": "Time of peak plasma levels of phenylbutyrate", "setting": "[5]; after an oral dose", "result": 2, "unit": "h"}
    ]}
  ]
}
